From patent US9200319B2, “Nucleotides and nucleosides and methods for their use in DNA sequencing” (Lasergen, Inc., priority 2008, dated 2015)
Where “and” joins values, the source holds several entries; their conditions need not be identical. Equal values may be shown once.

Columns and labels:
[1] = molecular target: T1, THERMINATOR™ DNA polymerase (Thermococcus sp., UniProt Q56366, A485L/D141A/E143A); assay: polymerase end point assay, mismatch discrimination (mismatched template bases); format: biochemical, Thermococcus species 9° N-7
T1 construct: purchased New England Biolabs
T1 sequence (Q56366 whole entry D141A/E143A/A485L): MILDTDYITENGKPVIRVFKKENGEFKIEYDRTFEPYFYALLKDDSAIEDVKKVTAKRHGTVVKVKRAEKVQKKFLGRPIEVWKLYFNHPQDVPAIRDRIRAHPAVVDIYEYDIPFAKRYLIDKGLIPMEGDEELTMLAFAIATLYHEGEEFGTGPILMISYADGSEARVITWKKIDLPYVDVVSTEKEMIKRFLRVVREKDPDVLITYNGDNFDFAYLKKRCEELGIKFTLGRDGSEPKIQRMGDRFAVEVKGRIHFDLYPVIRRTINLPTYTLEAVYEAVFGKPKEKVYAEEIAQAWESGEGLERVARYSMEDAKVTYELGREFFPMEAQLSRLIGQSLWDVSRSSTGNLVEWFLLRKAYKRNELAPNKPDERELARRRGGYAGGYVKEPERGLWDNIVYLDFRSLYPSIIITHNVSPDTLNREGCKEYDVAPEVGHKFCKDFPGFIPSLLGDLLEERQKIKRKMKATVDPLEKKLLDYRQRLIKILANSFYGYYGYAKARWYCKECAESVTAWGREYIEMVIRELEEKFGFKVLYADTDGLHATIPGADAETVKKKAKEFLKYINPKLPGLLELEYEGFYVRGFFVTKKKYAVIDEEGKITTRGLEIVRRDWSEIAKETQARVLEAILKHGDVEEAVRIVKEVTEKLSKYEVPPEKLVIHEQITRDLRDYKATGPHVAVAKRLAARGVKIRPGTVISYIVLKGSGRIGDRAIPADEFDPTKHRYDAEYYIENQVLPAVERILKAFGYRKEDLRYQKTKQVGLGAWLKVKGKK
Procedure: (§1) Natural and modified nucleotides were tested for incorporation efficiency using the “polymerase end point assay” (Wu et al., 2007, which is incorporated herein by reference). This assay examines incorporation efficiency on matched and mismatched template bases. Incorporation efficiency is measured by determining the concentration at which the compound incorporates on half the primer-template complexes (IC50). Titrations of increasing compound concentration were performed to generate curves from which the IC50 can be determined.
(§2) The sequence of the template DNA is selected depending on which compound will be tested. For example, the first interrogation base after the primer in the template sequence is the complement base of the compound when measuring incorporation efficiency, and one of three mismatched bases when measuring mismatch discrimination properties.
The mismatch/match ratios represent the ability of the polymerase to distinguish between correctly incorporating against a matched template base and a mismatch one. Discrimination is considered sufficient when the mismatch/match ratio is greater than or equal to 100 (two orders of magnitude). […] Both natural dGTP and C^7-(2-nitrobenzyloxy)methyl-2′-dGTP (5p107) show mismatch/match ratios ranging from 10 to 360, and 10 to 250, respectively, two of which are below the 100-fold threshold. […] A similar trend is observed for the C^7-hydroxymethyl-dATP analogs. For the compounds shown in Table 1, substitution at the α-carbon of the 2-nitrobenzyl group increases mismatch discrimination in a stereo-specific manner.
as §2, with “The temperature cycle to complete primer annealing is 80° C. for 30 seconds, 57° C. for 30 seconds, then cooling to 4° C. The” for “The”
(§3) To the annealed reaction, a DNA polymerase (e.g., THERMINATOR™ DNA polymerase, 0.25 units per reaction, New England Biolabs), 1× Thermopol Buffer, and a known concentration of either natural or modified nucleotide are added to each 10 μL reaction and incubated at 75° C. for 10 minutes, cooled on ice, and quenched with 10 μL of stop solution (98% formamide: 10 mM Na2EDTA, pH=8.0, 25 mg/ml Blue Dextran). Stopped reactions are heated to 75° C. for 30 seconds to denature the DNA, and then placed on ice. The extension products are analyzed on a 10% Long Ranger (Lonza) polyacrylamide gel using an ABI model 377 DNA sequencer.

[2] = molecular target: T1, THERMINATOR™ DNA polymerase; assay: biochemical; parameters: species or system Thermococcus species 9° N-7
Procedure: as §1, §2
as §3, with “sequencer. Additional details are provided in Example 1, below.” for “sequencer.”
Polymerase Assays. Natural and modified nucleotides were tested for incorporation efficiency using the “polymerase end point assay” (Wu et al., 2007, which is incorporated herein by reference). This assay examines incorporation efficiency on matched and mismatched template bases. Incorporation efficiency is measured by determining the concentration at which the compound incorporates on half the primer-template complexes (IC50). Titrations of increasing compound concentration were performed to generate curves from which the IC50 can be determined.
The assay is performed by first annealing 5 nM of BODIPY-FL labeled primer with 40 nM template DNA in 1× Thermopol Buffer (20 mM Tris-HCl, pH 8.8; 10 mM (NH4)2SO4; 10 mM KCl; 2 mM MgSO4; 0.1% Triton X-100, New England BioLabs).
as §2, with “The temperature cycle to complete primer annealing is 80° C. for 30 seconds, 57° C. for 30 seconds, then cooling to 4° C. The” for “The”
as §3

[3] = UV-cleavage of incorporated nucleotide analogs with 365 nm light; settings: 365 nm UV light, 50 mM NaN3; time at which half the incorporated analog is cleaved
Procedure: Cleavage of the terminating substituted 2-nitrobenzyl group when analogs are incorporated into the primer strand with 365 nm UV light allows for the next cycle of incorporation to resume. Without being bound by theory, at least two factors were found typically influence UV-cleavage rates of incorporated nucleotide analogs: a) stereo-chemistry of the α-carbon substitution of the 2-nitrobenzyl group, and b) substitution on the benzyl ring. Incorporation on a matched template is performed as described above using 1 μM concentration to extend the primer strand. Ten identical tubes are used for each incorporation experiment, after which NaN3 is added to a final concentration of 50 mM. Extended primer reactions are exposed to 365 nm light for various time points using the UV deprotector device described by Wu et al. (2007, which is incorporated herein by reference) and analyzed using an AB model 377 DNA sequencer. The quantitative data are plotted linearly as product formation versus exposure time, and the time point at which half the nucleotide analog is cleaved is calculated, as a DT50 value. […] For example, based on these examples, the ds2 analogs show faster cleavage rates (e.g., lower DT50 values) compared with ds1 analogs. Furthermore, substitution of a methoxy group at the 4 position on the benzyl ring further increases the rate of UV-cleavage, albeit for ds2 analogs only (e.g., the DT50 value for 5p098-ds2 is […] versus that of 1.9 sec for 6p087-ds2). Based on the examples summarized in Table 3, substitution at the α-carbon of the 2-nitrobenzyl ring increases UV-cleavage in a stereospecific manner.

[4] = molecular target: T1, THERMINATOR™ DNA polymerase; assay: termination assay, weighted sum analysis on homopolymer repeat template; format: biochemical, Thermococcus species 9° N-7; settings: 1.0 = complete termination after a single incorporation
Procedure: A weighted sum of 1.0 represents complete termination after a single incorporation, while a value greater than 1.0 indicates incorporation beyond the +1 position (e.g. nucleotide read through). […] The assay is performed as described above for the polymerase end-point assay, except that the template used is a homopolymer repeat, thereby allowing for multiple incorporations of a given nucleotide compound.

[5] = IC50 for incorporation, concentration at which the compound incorporates on half the primer-template complexes, complement template base

## CC(C)C(OCc1cn([C@H]2C[C@H](O)[C@@H](COP(=O)(O)OP(=O)(O)OP(=O)(O)O)O2)c2nc(N)[nH]c(=O)c12)c1ccccc1[N+](=O)[O-] (single isomer, unassigned) [5p143-ds2, 7-[1-(2-nitrophenyl)-2-methyl-propyloxy]methyl-7-deaza-2′-deoxyguanosine-5′-triphosphate]
[1]; template base "A"
  Mismatch/match ratio (10^2): >770 10^2
[1]; template base "G"
  Mismatch/match ratio (10^2): >7.7 10^2
[1]; template base "T"
  Mismatch/match ratio (10^2): 2.5 10^2
[2]; [5]
  IC50: 1.3 ± 0.3 nM

## CC(C)C(OCc1cn([C@H]2C[C@H](O)[C@@H](COP(=O)(O)OP(=O)(O)OP(=O)(O)O)O2)c2ncnc(N)c12)c1ccccc1[N+](=O)[O-] (single isomer, unassigned) [5p098-ds1, 7-[1-(2-nitrophenyl)-2-methyl-propyloxy]methyl-7-deaza-2′-deoxyadenosine-5′-triphosphate]
[3]
  DT50: 7.5 ± 0.8 s
[2]; [5]
  IC50: 6.7 ± 0.8 nM

## CC(C)C(OCc1cn([C@H]2C[C@H](O)[C@@H](COP(=O)(O)OP(=O)(O)OP(=O)(O)O)O2)c2ncnc(N)c12)c1c([N+](=O)[O-])cccc1[N+](=O)[O-] (single isomer, unassigned) [6p057-ds2, 7-[1-(2,6-dinitrophenyl)-2-methyl-propyloxy]methyl-7-deaza-2′-deoxyadenosine-5′-triphosphate]
[3]
  DT50: 4.8 ± 0.5 s
[2]; [5]
  IC50: 5.8 ± 1.1 nM

## Nc1nc2c(c(COCc3ccccc3[N+](=O)[O-])cn2[C@H]2C[C@H](O)[C@@H](COP(=O)(O)OP(=O)(O)OP(=O)(O)O)O2)c(=O)[nH]1 [5p107, 7-(2-nitrobenzyloxy)methyl-7-deaza-2′-deoxyguanosine-5′-triphosphate]
[1]; template base "A"
  Mismatch/match ratio (10^2): 2.5 10^2
[1]; template base "G"
  Mismatch/match ratio (10^2): 0.4 10^2
[1]; template base "T"
  Mismatch/match ratio (10^2): 0.1 10^2
[2]; [5]
  IC50: 1.5 ± 0.3 nM

## COc1ccc(C(OCc2cn([C@H]3C[C@H](O)[C@@H](COP(=O)(O)OP(=O)(O)OP(=O)(O)O)O3)c3ncnc(N)c23)C(C)C)c([N+](=O)[O-])c1 (single isomer, unassigned) [6p087-ds1, 7-[1-(4-methoxy-2-nitrophenyl)-2-methyl-propyloxy]methyl-7-deaza-2′-deoxyadenosine-5′-triphosphate]
[3]
  DT50: 8.8 ± 0.6 s
[2]; [5]
  IC50: 15 ± 1 nM

## CC(C)C(OCc1cn([C@H]2C[C@H](O)[C@@H](COP(=O)(O)OP(=O)(O)OP(=O)(O)O)O2)c2ncnc(N)c12)c1c([N+](=O)[O-])cccc1[N+](=O)[O-] (single isomer, unassigned) [6p057-ds1, 7-[1-(2,6-dinitrophenyl)-2-methyl-propyloxy]methyl-7-deaza-2′-deoxyadenosine-5′-triphosphate]
[3]
  DT50: 7.3 ± 1.2 s
[2]; [5]
  IC50: 5.2 ± 0.2 nM

## Nc1nc2c(ncn2[C@H]2C[C@H](O)[C@@H](COP(=O)(O)OP(=O)(O)OP(=O)(O)O)O2)c(=O)[nH]1 [dGTP, reference compound]
[1]; template base "A"
  Mismatch/match ratio (10^2): 3.6 10^2
[1]; template base "G"
  Mismatch/match ratio (10^2): 0.2 10^2
[1]; template base "T"
  Mismatch/match ratio (10^2): 0.1 10^2

## COc1ccc(C(OCc2cn([C@H]3C[C@H](O)[C@@H](COP(=O)(O)OP(=O)(O)OP(=O)(O)O)O3)c3ncnc(N)c23)C(C)C)c([N+](=O)[O-])c1 (single isomer, unassigned) [6p087-ds2, 7-[1-(4-methoxy-2-nitrophenyl)-2-methyl-propyloxy]methyl-7-deaza-2′-deoxyadenosine-5′-triphosphate]
[3]
  DT50: 1.9 s and 1.9 ± 0.1 s
[2]; [5]
  IC50: 18 ± 3 nM

## CC(C)C(OCc1cn([C@H]2C[C@H](O)[C@@H](COP(=O)(O)OP(=O)(O)OP(=O)(O)O)O2)c2nc(N)[nH]c(=O)c12)c1ccccc1[N+](=O)[O-] (single isomer, unassigned) [5p143-ds1, 7-[1-(2-nitrophenyl)-2-methyl-propyloxy]methyl-7-deaza-2′-deoxyguanosine-5′-triphosphate]
[1]; template base "A"
  Mismatch/match ratio (10^2): >830 10^2
[1]; template base "G"
  Mismatch/match ratio (10^2): >21 10^2
[1]; template base "T"
  Mismatch/match ratio (10^2): 5 10^2
[2]; [5]
  IC50: 1.2 ± 0.2 nM

## CC(C)C(OCc1cn([C@H]2C[C@H](O)[C@@H](COP(=O)(O)OP(=O)(O)OP(=O)(O)O)O2)c2ncnc(N)c12)c1ccccc1[N+](=O)[O-] (single isomer, unassigned) [5p098-ds2, 7-[1-(2-nitrophenyl)-2-methyl-propyloxy]methyl-7-deaza-2′-deoxyadenosine-5′-triphosphate]
[3]
  DT50: 3.3 s and 3.3 ± 0.2 s
[2]; [5]
  IC50: 5.7 ± 1.1 nM

## CC(C)C(OCc1cn([C@H]2C[C@H](O)[C@@H](COP(=O)(O)OP(=O)(O)OP(=O)(O)O)O2)c(=O)[nH]c1=O)c1ccccc1 (mixture of isomers) [5p111, 5-(α-isopropyl-benzyloxy)methyl-2′-dUTP]
[4]; 1x IC50
  Average Weighted Sum ± SD: 0.44 ± 0.02
[4]; 5x IC50
  Average Weighted Sum ± SD: 0.96 ± 0.01
[4]; 25x IC50
  Average Weighted Sum ± SD: 1.1 and 1.1 ± 0.03
[2]; Adj IC50 Conc (nM), adjusted IC50 used to set the concentrations of the termination assay
  IC50: 0.8 nM
[2]; [5]
  IC50: 0.8 nM
